What all share (format): functional
Test [1] relates to Liver microsome. Briefly: Antioxidant activity in Wistar albino Rattus norvegicus (rat) liver microsomes assessed as inhibition of lipid peroxidation after 1 hr by TBARS method. (In general: Microsomes from liver hold many membrane-bound enzymes, among them those of drug oxidation.)
The test system of test [2] is MCF7. The test can be described thus: Cytotoxicity against Homo sapiens (human) MCF7 cells after 48 hr by SRB assay. Conditions: MCF7, 48 h.
The subject of test [3] is MOLT-4. The test can be described thus: Cytotoxicity against Homo sapiens (human) MOLT4 cells after 48 hr by SRB assay. The settings on record: MOLT-4, 48 h.
Test [4] relates to HepG2. Briefly: Cytotoxicity against Homo sapiens (human) HepG2 cells after 48 hr by SRB assay. The settings on record: HepG2, 48 h. On the technique in general: The SRB assay estimates cell density from bound dye.
Test [5] has as its system HepG2. The test can be described thus: Growth inhibition of Homo sapiens (human) HepG2 cells at 100 uM after 48 hr by SRB assay. The settings on record: HepG2, 48 h, read-out: GI.
Test [6] relates to MOLT-4. The test can be described thus: Growth inhibition of Homo sapiens (human) MOLT4 cells at 100 uM after 48 hr by SRB assay. Conditions: MOLT-4, 48 h, read-out: GI.
The subject of test [7] is MCF7. Briefly: Growth inhibition of Homo sapiens (human) MCF7 cells at 100 uM after 48 hr by SRB assay. The settings on record: MCF7, 48 h, read-out: GI.

Molecules are shown by their SMILES. In brackets after ≈: the same amount, converted by molar mass. Structures can show the parent of a compound that is named as a salt.

For orientation: IC50 means the midpoint of a concentration-inhibition curve. As for `O=c1c(O)c(-c2ccc(O)c(O)c2)oc2cc(O)cc(O)c12` [QUERCETIN], in test [1], the IC50 was determined as 20 µg/mL (≈ 66.2 µM).

Broadly, the GI50 is the concentration that inhibits growth by half. Turning to `COc1cc(OC)cc(-c2cc(=O)c3ccccc3o2)c1` [3',5'-DIMETHOXYFLAVONE], the concentration for 50% growth inhibition (GI50) in test [2] is < 0.1 µM; in test [3], < 0.1 µM; in test [4] it was 58.8 µM. Moreover, the IC50 in test [1] came out at 40 µg/mL (≈ 142 µM).

On to `COc1ccc(-c2cc(=O)c3ccccc3o2)cc1OC` [3',4'-DIMETHOXYFLAVONE], for which the inhibition of growth at 100 µM in test [5], in test [6] and in test [7] was < 50% in each case. Further, in test [1], the IC50 turned out to be 40 µg/mL (≈ 142 µM).

Take `O=c1cc(-c2ccccc2)oc2cc(O)cc(O)c12` [CHRYSIN]: in test [5], the inhibition of growth at 100 µM is < 50%. In addition, the GI50 came to 69 µM in test [2] and 58.6 µM in test [3]. In addition, in test [1], the IC50 amounted to 60 µg/mL (≈ 236 µM).

In the case of `COc1ccc(-c2cc(=O)c3ccccc3o2)cc1` [4'-METHOXYFLAVONE], the inhibition of growth at 100 µM in test [5] is < 50%. The GI50 in test [2] stood at 61.8 µM; in test [3], 99.2 µM. Moreover, the IC50 in test [1] is 60 µg/mL (≈ 238 µM).

Consider `O=c1cc(-c2ccc(Cl)c([N+](=O)[O-])c2)oc2ccccc12`, for which the 50% growth inhibitory concentration (GI50) is 40.9 µM in test [2], 50.7 µM in test [3] and 93.8 µM in test [4]. Further, the IC50 in test [1] came to 80 µg/mL (≈ 265 µM).

For `COc1cccc2c1C(=O)c1c(O)c3c(c(O)c1C2=O)C[C@@](O)(C(=O)CO)C[C@@H]3O[C@H]1C[C@H](N)[C@H](O)[C@H](C)O1` [DOXORUBICIN HYDROCHLORIDE], the GI50 in test [2], in test [3] and in test [4] was < 0.1 µM each time.

Consider `O=c1cc(-c2cccc([N+](=O)[O-])c2)oc2ccccc12`, for which the GI50 in test [2] was found to be 31 µM; in test [3], 36 µM; in test [4] it was 94.9 µM. Further, the IC50 in test [1] was 60 µg/mL (≈ 225 µM).

Turning to `O=c1cc(-c2ccccc2)oc2ccccc12` [FLAVONE], in test [6], the inhibition of growth at 100 µM was < 50%. The GI50 turned out to be 69.3 µM in test [2] and 50.6 µM in test [4]. Also, the IC50 in test [1] came to 100 µg/mL (≈ 450 µM).

As for `O=c1cc(-c2ccc(Cl)cc2)oc2ccccc12`, the inhibition of growth at 100 µM in test [5], in test [6] and in test [7] was < 50% throughout. For the same compound, in test [1], the IC50 turned out to be 60 µg/mL (≈ 234 µM).

For the origin of these results see ChEMBL document CHEMBL3044587, “Synthesis of B-ring substituted flavones and evaluation of their antitumor and antioxidant activities” (Med Chem Res, 2013).
